Results reported in PMC11053447, “Human ABC and SLC Transporters: The Culprit Responsible for Unspecific PSMA-617 Uptake?” (Pharmaceuticals, 2024).
Like-named read-outs stand apart in the source and are kept apart here.

Legend:
[1] = target: T1, human MATE1 (Homo sapiens, UniProt Q96FL8); test: SLC transporter substrate assay, MDCKII-MATE1-Fin vs control MDCKII-CAT-Fin cells
T1 sequence (Q96FL8 1-570): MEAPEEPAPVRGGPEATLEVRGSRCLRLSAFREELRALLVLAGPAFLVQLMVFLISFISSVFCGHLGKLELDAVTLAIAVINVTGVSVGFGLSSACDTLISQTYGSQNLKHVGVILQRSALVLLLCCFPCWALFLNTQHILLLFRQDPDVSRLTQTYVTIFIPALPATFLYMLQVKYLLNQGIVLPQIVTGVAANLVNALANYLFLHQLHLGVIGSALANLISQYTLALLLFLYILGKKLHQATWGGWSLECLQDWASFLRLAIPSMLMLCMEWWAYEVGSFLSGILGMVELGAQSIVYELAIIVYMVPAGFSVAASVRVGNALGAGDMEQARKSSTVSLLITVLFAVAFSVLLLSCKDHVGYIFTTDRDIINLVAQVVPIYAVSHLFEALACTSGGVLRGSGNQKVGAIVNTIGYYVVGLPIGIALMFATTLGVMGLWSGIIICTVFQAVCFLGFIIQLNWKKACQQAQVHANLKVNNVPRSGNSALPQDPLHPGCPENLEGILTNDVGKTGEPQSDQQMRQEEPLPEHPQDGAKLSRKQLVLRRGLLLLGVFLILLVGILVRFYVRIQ
Method: The described cells were plated onto standard 24-well tissue culture plates at densities of 5 × 10^5 cells/well. […] Before starting the experiment, the cells were prepared by removing the medium and washing the cells twice with 300 µL of assay buffer. […] The cells were lysed by adding 300 µL of 0.1N NaOH, they were incubated for 10 min at 37 °C and 100 µL samples were taken from all the wells.
The amount of protein in each well was quantified using the BCA kit for protein determination (Sigma-Aldrich, St Louis, MO, USA). Positive controls were performed using a separate 96-well plate format according to Table S8 in SI4.
SI4. Results of transporter substrate assays (SLC)
Table S8: Parameters of positive controls, control cell lines and plating for SLC transporters assays.
KH: Krebs-Henseleit buffer, HBSS: Hank's balanced salt solution, MES: 2 -(N-morpholino) ethanesulfonic acid, cGMP:
Guanosine cyclic phosphate, E3S: Estrone -3-sulfate, Gly-Sar: Glycylsarcosine, MPP+: 1-methyl-4-phenylpyridinium.
Calculation of fold accumulation values for SLC transporter substrate assays The fold accumulation value was defined as the ratio of uptake of the test substance (TS) or probe substrate into transfected and control cells. If the fold accumulation is > 2 and can be inhibited by a known inhibitor of the transporter, the test substance can be considered as a substrate of the respective transporter.
Fold accumulation = UPTTRP
• UPTTRP: accumulated amount of test substance (TS) or probe substrate in transfected cells normalized by protein content […]
• UPTCTRL: accumulated amount of test substance (TS) or probe substrate in control cells normalized by protein content […]
4.1 Multidrug and toxin extrusion protein MATE1
(MDCKII-MATE1-Fin) and control cells (MDCKII-CAT-Fin) applying 2- and 20-minute incubation periods, measured in SLC transporter substrate assay. […] Concentrations are nominal. […]
control cells (MDCKII-CAT-Fin) applying 2- and 20-minute incubation periods, measured in SLC transporter substrate […]
Compound Nominal In MATE1 Fold

[2] = target: MDR1 (Homo sapiens, UniProt P08183); details: for Relative inhibition / ATP dependent transport / Relative ATP dependent transport: NMQ probe; for ATP dependent transport / Relative ATP dependent transport: mean (n=3) ± SD
MDR1, sequence (P08183 whole entry): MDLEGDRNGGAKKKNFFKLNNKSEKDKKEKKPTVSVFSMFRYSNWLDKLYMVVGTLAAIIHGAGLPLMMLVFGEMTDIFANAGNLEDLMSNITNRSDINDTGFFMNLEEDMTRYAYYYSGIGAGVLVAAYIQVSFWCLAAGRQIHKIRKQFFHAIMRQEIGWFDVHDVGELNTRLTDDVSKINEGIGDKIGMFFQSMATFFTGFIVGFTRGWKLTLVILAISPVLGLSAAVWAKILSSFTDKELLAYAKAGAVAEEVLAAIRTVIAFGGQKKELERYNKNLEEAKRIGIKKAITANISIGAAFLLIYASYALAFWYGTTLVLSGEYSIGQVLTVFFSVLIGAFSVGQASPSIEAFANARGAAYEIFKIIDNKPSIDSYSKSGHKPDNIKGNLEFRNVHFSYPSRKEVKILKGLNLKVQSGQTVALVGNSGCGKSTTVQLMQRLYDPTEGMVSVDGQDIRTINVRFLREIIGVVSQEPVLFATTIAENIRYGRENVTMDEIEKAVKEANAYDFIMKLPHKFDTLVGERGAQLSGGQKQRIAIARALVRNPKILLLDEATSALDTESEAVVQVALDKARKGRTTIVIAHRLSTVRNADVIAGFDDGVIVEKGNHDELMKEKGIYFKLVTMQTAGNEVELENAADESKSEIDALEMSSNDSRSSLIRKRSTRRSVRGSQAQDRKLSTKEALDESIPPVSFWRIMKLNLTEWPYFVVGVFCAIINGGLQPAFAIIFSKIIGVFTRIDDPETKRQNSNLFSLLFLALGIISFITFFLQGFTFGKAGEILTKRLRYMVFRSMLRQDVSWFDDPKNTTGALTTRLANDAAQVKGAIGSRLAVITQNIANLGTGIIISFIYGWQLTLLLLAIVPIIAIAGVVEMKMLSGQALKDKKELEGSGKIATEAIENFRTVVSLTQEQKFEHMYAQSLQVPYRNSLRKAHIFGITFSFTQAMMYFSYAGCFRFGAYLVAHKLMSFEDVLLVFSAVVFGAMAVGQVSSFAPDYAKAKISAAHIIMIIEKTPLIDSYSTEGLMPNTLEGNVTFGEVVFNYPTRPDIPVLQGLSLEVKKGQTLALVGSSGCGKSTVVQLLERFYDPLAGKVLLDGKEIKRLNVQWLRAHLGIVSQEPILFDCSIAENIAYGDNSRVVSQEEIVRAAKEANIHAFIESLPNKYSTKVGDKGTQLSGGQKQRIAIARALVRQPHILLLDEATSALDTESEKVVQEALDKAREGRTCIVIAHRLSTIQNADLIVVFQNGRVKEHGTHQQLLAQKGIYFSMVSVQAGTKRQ
Method: The incubations were carried out in the presence of 4 mM ATP or AMP to distinguish between transporter-mediated uptake and passive diffusion into the vesicles. […] Afterwards, the reaction mixtures were pre-incubated for 15 min at 37 °C for MRP1 or at 32 °C for BCRP, MDR1 and MRP4, respectively. The transporter assay was initiated through the addition of 25 μL of pre-warmed 12 mM MgATP (or 12 mM AMP in assay buffer as a background control). The reactions were quenched through the addition of 200 μL of ice-cold washing buffer and immediate filtration via glass fiber filters mounted onto a 96-well plate (filter plate). The filters were washed (5 × 200 μL of ice-cold washing buffer) and dried, and the amount of probe substrate inside the filtered vesicles was determined using LSC. The experiments were conducted in triplicate.
Calculation of ATP-dependent transport and inhibition for vesicular transport inhibition
For all wells the amount of the translocated probe substrate was determined in counts per minute (cpm).
ATP-dependent transport (pmol/mg protein/min) is calculated for each concentration using the following
𝐴𝑐𝑐𝐴𝑇𝑃 ∙ 𝑉 ∙ 𝐶𝐶 𝐴𝑐𝑐𝐴𝑀𝑃 ∙𝑉 ∙𝐶𝐶
𝐴𝑇𝑃 − 𝑑𝑒𝑝𝑒𝑛𝑑𝑒𝑛𝑡 𝑎𝑐𝑐𝑢𝑚𝑢𝑙𝑎𝑡𝑖𝑜𝑛 = ( 𝑇𝐶𝑃𝑀 𝑠𝑢𝑏) − ( 𝑇𝐶𝑃𝑀 𝑠𝑢𝑏)
• AccATP: probe substrate accumulation with ATP (cpm)
• AccAMP: probe substrate accumulation with AMP (cpm)
• Tcpm: cpm in dosing solution V: volume per well (µL)
• CCsub: probe substrate concentration (µM)
• Prot: total protein per well (mg)
• t: incubation time (min)
Relative ATP-dependent transport (%) values were calculated using the following equation:
𝑅𝑒𝑙𝑎𝑡𝑖𝑣𝑒 𝐴𝑇𝑃 − 𝑑𝑒𝑝𝑒𝑛𝑑𝑒𝑛𝑡 𝑡𝑟𝑎𝑛𝑠𝑝𝑜𝑟𝑡 (%) = 𝐴 − 𝐵 ∙ 100
• A: amount of translocated substrate in the presence of test substance (TS) and ATP
• B: amount of translocated substrate in the presence of test substance (TS) and AMP
• C: amount of translocated substrate in the presence of solvent and ATP
• D: amount of translocated substrate in the presence of solvent and AMP
Relative inhibition (%) is calculated by setting probe substrate transport in the absence of test substance as
𝑅𝑒𝑙𝑎𝑡𝑖𝑣𝑒 𝑖𝑛ℎ𝑖𝑏𝑖𝑡𝑖𝑜𝑛 (%) = 𝐴𝑐𝑐𝑆𝑝𝑒𝑐𝑖𝑓𝑖𝑐,𝑥 ∙100
• Accspecific,x: transporter specific accumulation for a given sample (pmol/mg/min)
• Accspecific,vehicle: transporter specific accumulation for a solvent control (pmol/mg/min)
Data are expressed as mean (n=3)
N-methyl quinidine (NMQ) measured in the vesicular transport inhibition assay.
Nominal ATP Relative ATP Relative
Compound concentration [µM] dependent transport dependent transport inhibition [%]
[pmol/mg/min] [% of control]
Data are expressed as mean (n=3) ± SD.

[3] = target: T2, human OAT3 (Homo sapiens, UniProt Q8TCC7); test: SLC transporter substrate assay, HEK293-OAT3-LV vs control HEK293-Mock-LV cells; details: 20 min
T2 sequence (Q8TCC7 1-542): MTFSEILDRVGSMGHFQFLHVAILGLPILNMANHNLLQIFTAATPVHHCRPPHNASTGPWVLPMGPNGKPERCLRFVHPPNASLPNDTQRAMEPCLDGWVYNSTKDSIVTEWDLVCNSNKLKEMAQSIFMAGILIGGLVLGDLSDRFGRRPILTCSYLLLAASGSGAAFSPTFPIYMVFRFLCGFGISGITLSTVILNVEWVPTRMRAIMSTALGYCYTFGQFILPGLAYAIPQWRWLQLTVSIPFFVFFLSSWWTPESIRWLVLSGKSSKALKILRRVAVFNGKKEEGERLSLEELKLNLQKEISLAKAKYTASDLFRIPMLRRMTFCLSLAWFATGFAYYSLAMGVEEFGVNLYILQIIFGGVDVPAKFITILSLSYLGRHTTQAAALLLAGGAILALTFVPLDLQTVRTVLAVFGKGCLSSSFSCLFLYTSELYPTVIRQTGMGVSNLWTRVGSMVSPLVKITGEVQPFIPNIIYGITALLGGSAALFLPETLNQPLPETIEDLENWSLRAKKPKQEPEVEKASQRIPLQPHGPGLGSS

[4] = 0.03 µM nominal + Probenecid 500 µM
[5] = 0.30 µM nominal + Probenecid 500 µM

`[3H]C(c1ccc2ccccc2c1)C([3H])(NC(=O)C1CCC(CNC(=O)CN2CCN(CC(=O)[O-])CCN(CC(=O)[O-])CCN(CC(=O)[O-])CC2)CC1)C(=O)NCCCCC(NC(=O)NC(CCC(=O)O)C(=O)O)C(=O)O.[Lu+3]` (stereo not drawn) [([α,β-^3H]Nal)Lu-PSMA-617] was tested, and the “Accumulation in MATE1 transporter expressing cells” value ([1]; 0.03 µM nominal, 2 min) was 0.07 ± 0.01 pmol/mg protein, the “Accumulation in control cells” value ([1]; 0.03 µM nominal, 2 min) was 0.12 ± 0.01 pmol/mg protein and the “Accumulation, active transport” value ([1]; 0.03 µM nominal, 2 min) was -0.05 ± 0.02 pmol/mg protein. For the same compound, the Fold accumulation ([1]; 0.03 µM nominal, 2 min) was 0.60, the “Accumulation in MATE1 transporter expressing cells” value ([1]; 0.03 µM nominal, 20 min) was 0.09 ± 0.00 pmol/mg protein and the “Accumulation in control cells” value ([1]; 0.03 µM nominal, 20 min) was 0.19 ± 0.02 pmol/mg protein. For the same compound, the “Accumulation, active transport” value ([1]; 0.03 µM nominal, 20 min) was -0.10 ± 0.02 pmol/mg protein, the Fold accumulation ([1]; 0.03 µM nominal, 20 min) was 0.49 and the “Accumulation in MATE1 transporter expressing cells” value ([1]; 0.30 µM nominal, 2 min) was 0.67 ± 0.05 pmol/mg protein. For the same compound, the “Accumulation in control cells” value ([1]; 0.30 µM nominal, 2 min) was 0.82 ± 0.11 pmol/mg protein, the “Accumulation, active transport” value ([1]; 0.30 µM nominal, 2 min) was -0.15 ± 0.12 pmol/mg protein and the Fold accumulation ([1]; 0.30 µM nominal, 2 min) was 0.81. For the same compound, the “Accumulation in MATE1 transporter expressing cells” value ([1]; 0.30 µM nominal, 20 min) was 0.77 ± 0.12 pmol/mg protein, the “Accumulation in control cells” value ([1]; 0.30 µM nominal, 20 min) was 1.02 ± 0.12 pmol/mg protein and the “Accumulation, active transport” value ([1]; 0.30 µM nominal, 20 min) was -0.26 ± 0.17 pmol/mg protein. For the same compound, the Fold accumulation ([1]; 0.30 µM nominal, 20 min) was 0.75, the “Substrate assessment (MATE1)” value ([1]; 0.03, 0.30 µM, 2, 20 min) was “no in vitro substrate” and the “Max. transporter-specific fold accumulation, without inhibitor” value ([1]; 2 min, 0.3 µM) was 0.81. The “Inhibitor assessment (MDR1)” value ([2]; 0.30 and 3.00 µM, inhibition >20% defined as significant) was “no inhibitor”, the Relative inhibition ([2]; test substance 0.30 µM nominal) was 8% and the ATP dependent transport ([2]; test substance 0.30 µM nominal) was 4902.67 ± 183.91 pmol/mg/min. For the same compound, the “Relative ATP dependent transport” value ([2]; test substance 0.30 µM nominal) was 91.93 ± 3.56 % of control, the Relative inhibition ([2]; test substance 3.00 µM nominal) was -5% and the ATP dependent transport ([2]; test substance 3.00 µM nominal) was 5625.67 ± 230.64 pmol/mg/min. For the same compound, the “Relative ATP dependent transport” value ([2]; test substance 3.00 µM nominal) was 105.48 ± 4.44 % of control, the “Accumulation in OAT3 transporter expressing cells” value [3, 4] was 0.05 ± 0.01 pmol/mg protein and the “Accumulation in control cells” value [3, 4] was 0.03 ± 0.01 pmol/mg protein. The “Accumulation, active transport” value [3, 4] was 0.02 ± 0.01 pmol/mg protein, the Fold accumulation [3, 4] was 1.56 and the “Accumulation in OAT3 transporter expressing cells” value ([3]; 0.03 µM nominal, no inhibitor) was 0.07 ± 0.01 pmol/mg protein. For the same compound, the “Accumulation in control cells” value ([3]; 0.03 µM nominal, no inhibitor) was 0.03 ± 0.00 pmol/mg protein, the “Accumulation, active transport” value ([3]; 0.03 µM nominal, no inhibitor) was 0.03 ± 0.01 pmol/mg protein and the Fold accumulation ([3]; 0.03 µM nominal, no inhibitor) was 1.96. For the same compound, the “Accumulation in OAT3 transporter expressing cells” value [3, 5] was 0.74 ± 0.15 pmol/mg protein, the “Accumulation in control cells” value [3, 5] was 0.29 ± 0.07 pmol/mg protein and the “Accumulation, active transport” value [3, 5] was 0.45 ± 0.17 pmol/mg protein. For the same compound, the Fold accumulation [3, 5] was 2.52, the “Accumulation in OAT3 transporter expressing cells” value ([3]; 0.30 µM nominal, no inhibitor) was 0.60 ± 0.13 pmol/mg protein and the “Accumulation in control cells” value ([3]; 0.30 µM nominal, no inhibitor) was 0.29 ± 0.06 pmol/mg protein. The “Accumulation, active transport” value ([3]; 0.30 µM nominal, no inhibitor) was 0.31 ± 0.14 pmol/mg protein, the Fold accumulation ([3]; 0.30 µM nominal, no inhibitor) was 2.09 and the “Max. transporter-specific fold accumulation, without inhibitor” value ([3]; 0.3 µM) was 2.09. The “Uptake via transporter (OAT3)” value ([3]; absence and presence of probenecid) was “not taken up” and the “Max. transporter-specific fold accumulation, with inhibitor” value ([3]; Probenecid, 0.3 µM) was 2.52.
